The target of this assay is T1, human GLP-1 receptor (Homo sapiens, UniProt P43220).
T1 construct: expressed in transfected cells; host or cells: membranes of BHK cells, parent line BHKTS13, clone FCW467-12A
The assay can be described thus: Assay (II)(a): GLP-1 receptor binding, [125I]GLP-1 displacement, SPA on BHK membranes. The settings on record: displacement of [125I]GLP-1, membranes with human GLP-1 receptor; read-out: IC50 GLP-1R. How it is done:
Assay (II): GLP-1 and Glucagon Receptor Binding The purpose of this assay is to test the in vitro receptor binding activity of the GLP-1 derivatives of the invention. (a) GLP-1 Receptor Binding The GLP-1 receptor (GLP-1R) binding is a measure of the affinity of a derivative for the human GLP-1 receptor. The GLP-1 receptor binding of each derivatives were determined with competitive binding, displacing [^125I]GLP-1 bound to GLP-1 receptors expressed in cell membranes associated with wheat germ agglutinin (WGA) scintillation proximity assay (SPA) beads. Each derivative was added in a series of concentrations to isolated membranes comprising the human GLP-1 receptor and displacement of the labelled radioligand was monitored. The receptor binding was reported as the concentration at which half of the labelled ligand is displaced from the receptor, the IC^50 value. The following chemicals were used in the assay: MEM w/o phenol red (Gibco 11880-028), Pen/strep (Invitrogen 15140-122), G418 (Invitrogen 10131-027), 1 M Hepes (Gibco 15630), EDTA (Invitrogen 15575-038), PBS (Invitrogen 14190-094), fetal calf serum (Invitrogen 16140-071), EGTA, MgCl2 (Merck 1.05832.1000), Tween 20 (Amresco 0850C335), SPA particles (wheat germ agglutinin (WGA) SPA beads, Perkin Elmer RPNQ0001), [125I]-GLP-1]-(7-36)NH2 (produced in-house), OptiPlate™-96 (Perkin Elmer). Buffer 1 consisted of 20 mM Na-HEPES plus 10 mM EDTA and pH was adjusted to 7.4. Buffer 2 consisted of 20 mM Na-HEPES plus 0.1 mM EDTA and pH was adjusted to 7.4. Assay buffer consisted of 50 mM HEPES supplemented with 5 mM EGTA, 5 mM MgCl2, 0.005% Tween 20 and pH was adjusted to 7.4. A 0.02% albumin stock consisted of HSA dissolved at 0.02% (w/v) in assay buffer. The cells used in this assay (clone FCW467-12A) were BHK cells with BHKTS13 as a parent cell line. The cells express the human GLP-1 receptor. The cells were grown at 5% CO2 in DMEM, 10% fetal calf serum, 1% Pen/Strep (Penicillin/Streptomycin) and 1.0 mg/ml of the selection marker G418. To make a membrane preparation the cells were grown to approximately 80% confluence. The cells were washed twice in phosphate-buffered saline and harvested. The cells were pelleted using a brief centrifugation and the cell pellet was kept on ice. The cell pellet was homogenised with ULTRA-THURRAX dispersing instrument for 20-30 seconds in a suitable amount of buffer 1 (e.g., 10 ml). The homogenate was centrifuged for 15 minutes. The pellet was re-suspended (homogenised) in 10 ml buffer 2 and centrifuged. This step was repeated once more. The resulting pellet was re-suspended in buffer 2 and the protein concentration was determined. The membranes were aliquoted and stored at minus 80° C. • 1. For the receptor binding assay 50 μl of the assay buffer was added to each well of an assay plate. • 2. Test compounds were serially diluted to give the following concentrations: 8×10EE-7 M, 8×10EE-8 M, 8×10EE-9 M, 8×10EE-10 M, 8×10EE-11 M, 8×10EE-12 M and 8×10EE-13 M. Twenty-five μl were added to appropriate wells in the assay plate. • 3. Cell membrane aliquots were thawed and diluted to their working concentration. Fifty μl were added to each well in the assay plate. • 4. WGA SPA beads were suspended in assay buffer at 20 mg/ml. The suspension was diluted to 10 mg/ml in assay buffer just prior to addition to the assay plate. Fifty μl were added to each well in the assay plate. • 5. The incubation was started by adding 25 μl of 480 pM solution of [125I]-GLP-1]-(7-36)NH2 to each well of the assay plate. A 25 μl aliquot was reserved for measuring total counts/well. • 6. The assay plate was incubated for 2 h at 30° C. • 7. The assay plate was centrifuged for 10 min. • 8. The assay plate was read in a Perkin Elmer TopCount NXT instrument. Calculations The data from the TopCount instrument were transferred to GraphPad Prism software. The software averaged the values for the replicates and performed a non-linear regression. IC50 values were calculated by the software and reported in nM. […]
Background: Loss of bound radioactivity is the signal in a displacement assay; it reports binding, not function.

*1 amine or outer side, *2 acyl side, *3 side chain or, on linkers, in order; H or OH if unused. Where a SMILES comes first, the peptide text is derived from it. Bridges are numbered along the chain shown (N, C = ends). Roman numbers before positions name the chains, in order. Side-chain parts run from the residue outwards. [ ]: non-standard residue; d: D form. The star is where a group is joined. C18 diacid = O=C(O)CCCCCCCCCCCCCCCCC(=O)*; γGlu = O=C(O)[C@H](CCC(=O)[*:2])N[*:1]; Desaminohistidyl = O=C(CCc1c[nH]cn1)*; Ac4c = NC1(C(=O)O)CCC1; AEEA = NCCOCCOCC(=O)O; Aib = CC(C)(N)C(=O)O

The results in this text go back to US9988430B2, “Stable GLP-1 based GLP-1/glucagon receptor co-agonists” (Novo Nordisk A/S, priority 2014, dated 2018).

T1 sequence (P43220 24-463): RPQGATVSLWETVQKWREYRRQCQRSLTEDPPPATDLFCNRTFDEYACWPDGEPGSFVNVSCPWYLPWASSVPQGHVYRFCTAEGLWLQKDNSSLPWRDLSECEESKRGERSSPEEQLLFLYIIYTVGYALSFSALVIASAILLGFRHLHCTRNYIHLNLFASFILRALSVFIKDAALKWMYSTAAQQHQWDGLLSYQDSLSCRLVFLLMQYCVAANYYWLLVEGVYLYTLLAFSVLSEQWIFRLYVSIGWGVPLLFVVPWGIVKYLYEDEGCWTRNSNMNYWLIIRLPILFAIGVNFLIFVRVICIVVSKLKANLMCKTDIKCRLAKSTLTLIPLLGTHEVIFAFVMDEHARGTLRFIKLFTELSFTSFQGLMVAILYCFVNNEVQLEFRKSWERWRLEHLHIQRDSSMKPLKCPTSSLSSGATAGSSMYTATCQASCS

On to `CC[C@H](C)[C@H](NC(=O)[C@H](Cc1ccccc1)NC(=O)[C@H](CCC(=O)O)NC(=O)[C@H](CCCNC(=N)N)NC(=O)[C@H](C)NC(=O)[C@H](C)NC(=O)[C@H](CCC(N)=O)NC(=O)[C@H](CCC(=O)O)NC(=O)[C@H](CCC(=O)O)NC(=O)[C@H](CC(C)C)NC(=O)[C@H](Cc1ccc(O)cc1)NC(=O)[C@H](CCCCN)NC(=O)[C@H](CO)NC(=O)[C@@H](NC(=O)[C@H](CC(=O)O)NC(=O)[C@H](CO)NC(=O)[C@@H](NC(=O)[C@H](Cc1ccccc1)NC(=O)[C@@H](NC(=O)CNC(=O)[C@H](Cc1c[nH]cn1)NC(=O)C1(NC(=O)CCc2c[nH]cn2)CCC1)[C@@H](C)O)[C@@H](C)O)C(C)C)C(=O)N[C@@H](C)C(=O)N[C@@H](Cc1c[nH]c2ccccc12)C(=O)N[C@@H](CC(C)C)C(=O)N[C@@H](CC(C)C)C(=O)N[C@@H](CCCCN)C(=O)N[C@@H](CCCCNC(=O)CNC(=O)[C@H](CO)NC(=O)[C@H](CCC(=O)O)NC(=O)CNC(=O)[C@H](CO)NC(=O)CC[C@H](NC(=O)CC[C@H](NC(=O)CCCCCCCCCCCCCCCCC(=O)O)C(=O)O)C(=O)O)C(N)=O` [Example 2, N^ε35-[2-[[(2S)-2-[[(2S)-4-carboxy-2-[[2-[[(2S)-2-[[(4S)-4-carboxy-4-[[(4S)-4-carboxy-4-(17-carboxyheptadecanoylamino)butanoyl]amino]butanoyl]amino]-3-hydroxypropanoyl]amino]acetyl]amino]butanoyl]amino]-3-hydroxypropanoyl]amino]acetyl]-[Imp7,Acb8,His9,Lys18,Glu22,Arg26,Leu33,Lys35]-GLP-1-(7-35)-peptide amide] (I: Desaminohistidyl-[Ac4c]HGTFTSDVSKYLEEQAAREFIAWLLKK-NH2 / II: {C18 diacid-γGlu-γGlu}-SGESG; amide I:28-II:C), for which the IC50 (in general, the concentration needed to halve the response being measured) came to 0.1 nM.
Turning to `CC[C@H](C)[C@H](NC(=O)[C@H](Cc1ccccc1)NC(=O)[C@H](CCC(=O)O)NC(=O)[C@H](CCCNC(=N)N)NC(=O)[C@H](C)NC(=O)[C@H](C)NC(=O)[C@H](CCCNC(=N)N)NC(=O)CNC(=O)[C@H](CCC(=O)O)NC(=O)[C@H](CC(C)C)NC(=O)[C@H](Cc1ccc(O)cc1)NC(=O)[C@H](CCCCN)NC(=O)[C@H](CO)NC(=O)[C@@H](NC(=O)[C@H](CC(=O)O)NC(=O)[C@H](CO)NC(=O)[C@@H](NC(=O)[C@H](Cc1ccccc1)NC(=O)[C@@H](NC(=O)CNC(=O)[C@H](Cc1c[nH]cn1)NC(=O)[C@H](C)NC(=O)CCc1c[nH]cn1)[C@@H](C)O)[C@@H](C)O)C(C)C)C(=O)N[C@@H](C)C(=O)N[C@@H](Cc1c[nH]c2ccccc12)C(=O)N[C@@H](CC(C)C)C(=O)N[C@@H](CC(C)C)C(=O)N[C@@H](CCCCNC(=O)COCCOCCNC(=O)COCCOCCNC(=O)CC[C@H](NC(=O)CC[C@H](NC(=O)CC[C@H](NC(=O)CCCCCCCCCCCCCCCCC(=O)O)C(=O)O)C(=O)O)C(=O)O)C(=O)NCC(=O)NCC(=O)NCC(=O)O` [Example 11, N^ε34-[2-[2-[2-[[2-[2-[2-[[(4S)-4-carboxy-4-[[(4S)-4-carboxy-4-[[(4S)-4-carboxy-4-(17-carboxyheptadecanoylamino)butanoyl]amino]butanoyl]amino]butanoyl]amino]ethoxy]ethoxy]acetyl]amino]ethoxy]ethoxy]acetyl]-[Imp7,His9,Lys18,Arg23,Arg26,Leu33,Gly36]-GLP-1-(7-37)-peptide] (Desaminohistidyl-AHGTFTSDVSKYLEGRAAREFIAWLLK([AEEA-AEEA-γGlu-γGlu-γGlu-C18 diacid])GGG-OH), the IC50 stood at 0.9 nM.
For the compound `CC[C@H](C)[C@H](NC(=O)[C@H](Cc1ccccc1)NC(=O)[C@H](CCC(=O)O)NC(=O)[C@H](CCCNC(=N)N)NC(=O)[C@H](C)NC(=O)[C@H](C)NC(=O)[C@H](CCC(N)=O)NC(=O)[C@H](CCC(=O)O)NC(=O)[C@H](CCC(=O)O)NC(=O)[C@H](CC(C)C)NC(=O)[C@H](Cc1ccc(O)cc1)NC(=O)[C@H](CCCCN)NC(=O)[C@H](CO)NC(=O)[C@H](Cc1ccc(O)cc1)NC(=O)[C@H](CC(=O)O)NC(=O)[C@H](CO)NC(=O)[C@@H](NC(=O)[C@H](Cc1ccccc1)NC(=O)[C@@H](NC(=O)CNC(=O)[C@H](Cc1c[nH]cn1)NC(=O)C(C)(C)NC(=O)CCc1c[nH]cn1)[C@@H](C)O)[C@@H](C)O)C(=O)N[C@@H](C)C(=O)N[C@@H](Cc1c[nH]c2ccccc12)C(=O)N[C@@H](CC(C)C)C(=O)N[C@@H](CC(C)C)C(=O)N[C@@H](CCCCN)C(=O)NCC(=O)N[C@@H](CCCCNC(=O)CNC(=O)[C@H](CO)NC(=O)[C@H](CCC(=O)O)NC(=O)CNC(=O)[C@H](CO)NC(=O)CC[C@H](NC(=O)CC[C@H](NC(=O)CCCCCCCCCCCCCCCCC(=O)O)C(=O)O)C(=O)O)C(=O)NCC(=O)O` [Example 14, N^ε36-[2-[[(2S)-2-[[(2S)-4-carboxy-2-[[2-[[(2S)-2-[[(4S)-4-carboxy-4-[[(4S)-4-carboxy-4-(17-carboxyheptadecanoylamino)butanoyl]amino]butanoyl]amino]-3-hydroxypropanoyl]amino]acetyl]amino]butanoyl]amino]-3-hydroxypropanoyl]amino]acetyl]-[Imp7,Aib8,His9,Tyr16,Lys18,Glu22,Arg26,Leu33,Lys36]-GLP-1-(7-37)-peptide] (I: Desaminohistidyl-[Aib]HGTFTSDYSKYLEEQAAREFIAWLLKGKG-OH / II: {C18 diacid-γGlu-γGlu}-SGESG; amide I:29-II:C), the IC50 amounted to 3.2 nM.
With `CC[C@H](C)[C@H](NC(=O)[C@H](Cc1ccccc1)NC(=O)[C@H](CCC(=O)O)NC(=O)[C@H](CCCNC(=N)N)NC(=O)[C@H](C)NC(=O)[C@H](C)NC(=O)[C@H](CCC(N)=O)NC(=O)[C@H](CCC(=O)O)NC(=O)[C@H](CCC(=O)O)NC(=O)[C@H](CC(C)C)NC(=O)[C@H](Cc1ccc(O)cc1)NC(=O)[C@H](CCCCN)NC(=O)[C@H](CO)NC(=O)[C@@H](NC(=O)[C@H](CC(=O)O)NC(=O)[C@H](CO)NC(=O)[C@@H](NC(=O)[C@H](Cc1ccccc1)NC(=O)[C@@H](NC(=O)CNC(=O)[C@H](Cc1c[nH]cn1)NC(=O)C(C)(C)NC(=O)CCc1c[nH]cn1)[C@@H](C)O)[C@@H](C)O)C(C)C)C(=O)N[C@@H](C)C(=O)N[C@@H](Cc1c[nH]c2ccccc12)C(=O)N[C@@H](CC(C)C)C(=O)N[C@@H](CC(C)C)C(=O)N[C@@H](CCCCNC(=O)CC[C@H](NC(=O)CC[C@H](NC(=O)[C@H](CO)NC(=O)CNC(=O)[C@H](CCC(=O)O)NC(=O)[C@H](CO)NC(=O)CNC(=O)CCCCCCCCCCCCCCCCC(=O)O)C(=O)O)C(=O)O)C(=O)N[C@H](C(=O)O)[C@@H](C)O` [Example 27, N^ε34-[(4S)-4-carboxy-4-[[(4S)-4-carboxy-4-[[(2S)-2-[[2-[[(2S)-4-carboxy-2-[[(2S)-2-[[2-(17-carboxyheptadecanoylamino)acetyl]amino]-3-hydroxypropanoyl]amino]butanoyl]amino]acetyl]amino]-3-hydroxypropanoyl]amino]butanoyl]amino]butanoyl]-[Imp7,Aib8,His9,Lys18,Glu22,Arg26,Leu33,Thr35]-GLP-1-(7-35)-peptide] (I: Desaminohistidyl-[Aib]HGTFTSDVSKYLEEQAAREFIAWLLKT-OH / II: {C18 diacid}-GSEGS[γGlu][γGlu]; amide I:27-II:C) the figure was 2.3 nM.
